# According to patent US11596615B2, “Compositions and methods for treatment of insulin resistance” (Temple University—Of The Commonwealth System Of Higher …, priority 2016, dated 2023):
# “Also recorded” adds a separate entry of the source. Structures can show the parent of a compound that is named as a salt. Where two headings read alike, the source gives them in different places.
# How the values were obtained:
# [1] = Predicted concentration-time profile for oral dosing in drinking water; settings: 10 mg/kg/day in drinking water, modeled as six oral doses over 12 hrs, plasma
# Procedure: The maximum predicted concentration is 0.82 μg/mL and the minimum concentration 0.1 μg/mL. The dose can be adjusted proportionally to achieve the desired concentrations.
# [2] = Solubility in water, DMSO and PBS solubility assay; type: physicochemical
# Procedure: The title compound was determined to be soluble in water or DMSO at a concentration of at least 10 mM.
# [3] = Liver microsome stability, human; type: in vitro ADME, Human (pooled male and female); settings: both sexes; human liver microsomes, 1 μM compound, 0.5 mg/ml microsomal protein, 37° C., 2 mM NADPH
# Procedure: The stability of the title compound in the presence of liver microsomes was tested at 1 μM compound and 0.5 mg/ml rat or human microsomal protein, at 37° C. with 2 mM NADPH (standard in vitro screening concentrations). […] The “t1/2” values are the maximum time employed for the respective assays.
# [4] = tested on: 3T3-L1 adipocytes; assay: 13C6-glucose uptake in 3T3-L1 adipocytes exposed to 4HNE/H2O2 (Example 7); type: cell-based, mouse; settings: 0.1, 1, 10 and 100 μM compound for 2 h, then 4HNE/H2O2 100 μM each 1 h; FIG. 5; dihydrochloride
# Procedure: 3T3-L1 Mouse Embryonic Fibroblasts, ATCC® CL-173™ were differentiated to adipocytes using chemically-induced differentiation according to the ATCC guidelines. Differentiated 3T3-L1 Adipocyte 4e^6 cell were incubated overnight in glucose free media (RPMI ref. #11879 Gibco) containing 1% dialyzed fetal bovine serum (ref. #26400 Gibco) at 37° C. Cells were washed with and incubated for 1 h with glucose free media before compound exposure. Cells were incubated with and without increasing concentration (0.1, 1, 10 and 100 μM) of (S)-2-amino-6-((3-aminopropyl)amino)hexanoic acid dihydrochloride (title compound) for 2 h at 37° C., followed by 3 wash steps in glucose free phosphate buffer. […]
# Cells were washed with PBS, followed by addition of glucose free DMEM medium containing 20 mM of ^13C6 glucose, 10 mM, 2-fluorodeoxyglucose (2-FDG) and insulin 10 pM (Sigma I5500) incubated for 1 hour at 37° C. 2-FDG is an inhibitor of glucose metabolism, thus preventing glucose breakdown and allowing its accumulation to further be measure and quantified. […]
# The detection of the ^13C6 glucose, was carried out using a Waters Xevo™ triple quadrupole tandem mass spectrometer (Waters Corp., Manchester, UK). […] Chromatographic and mass spectrum data were collected and analyzed with Waters MassLynx v4.1 software. […]
# [5] = Intravenous and oral pharmacokinetic study in mice; type: in vivo; settings: for VSS: dihydrochloride
# Procedure: A pharmacokinetic study was conducted with mice (Charles river) (N=3). The animals had free access to water and standard laboratory chow under a controlled 12 hour light-dark cycle. After at least one week of an acclimation period, the mice were administrated a dose of 5 mg/kg of the title compound ((S))-2-amino-6-((3-aminopropyl)amino)hexanoic acid dihydrochloride) intravenously or 10 mg/kg orally. For both intravenous and oral administration, the compound was dissolved in saline. After intravenous administration, blood samples were collected at 10 min, 30 min, 1, 2, 4, 8 and 24 hours. For oral gavage, blood samples were collected at 15 min, 30 min 1, 2, 4, 8 and 24 hours. The blood samples were collected in polythene tubes with heparin sodium 100 unit/mL and centrifuged at 6000×g for 10 min to obtain plasma, which was stored at −20° C. until analysis.
# The title compound concentration in mouse plasma was quantitated using an LC/MS/MS (API 4000, AB SCIEX). Briefly, 50 μl mouse plasma was added to 100 μl acetonitrile with internal standard (Diltiazem 10 ng/ml). The mixture was vortexed and centrifuged, and 5 μl supernatant was injected into LC/MS/MS for analysis. The separation was performed on a Waters C18 column (2.1×50 mm, […] particle size). The mobile phase consisted of 0.2% pentafluoropropionic acid in water:acetonitrile by gradient elution. A Sciex API 4000 mass spectroscopy system equipped with an electrospray source in the positive-ion multiple reaction monitoring (MRM) mode was used for detection. The MRM transitions monitored for the title compound and diltiazem were m/z 204.4/84.2 and m/z 415/178, respectively. The retention time is 12.5 min for (S)-2-amino-6-((3-aminopropyl)amino)hexanoic acid and 14 min for diltiazem. The quantitation ranged from 25 to 1000 ng/ml.
smiles,measurement,setting,value
"NCCCNCCCC[C@H](N)C(=O)O [APL, (S)-2-amino-6-((3-aminopropyl)amino)hexanoic acid dihydrochloride]",maximum predicted concentration,[1],0.82 µg/mL
same,minimum predicted concentration,[1],0.1 µg/mL
same,solubility,"[2]; DMSO, organic solvent or mixture, read-out: solubility in DMSO",≥ 10 mM
same,solubility,"[2]; phosphate buffered saline (PBS) without Ca or Mg, aqueous buffer, PBS pH 7.4 without Ca or Mg, 200 μM = maximum concentration tested, read-out: solubility in PBS",> 0.2 mM
same,solubility,"[2]; water, read-out: solubility in water",≥ 10 mM
same,half-life at 1 μM,[3],> 1 h
same,microsomal CLint at 1 μM,[3],< 23 µL/min/mg
same,glucose uptake impairment induced by 4-HNE and H2O2,[4],"able to prevent the glucose uptake impairment induced by 4-HNE and H2O2, in a dose-dependent fashion; also recorded: prevented glucose uptake-impairing effect of 4-HNE and H2O2, in a dose-dependent fashion"
same,VSS,"[5]; IV, 5 mg/kg",0.4 L/kg
same,AUCtot,"[5]; IV, 5 mg/kg, plasma",4.72 μg*hr/m
same,CL,"[5]; PO, 10 mg/kg",0.285 L/h
same,VSS,"[5]; PO, 10 mg/kg, listed as (S)-2-amino-6-((3-aminopropyl)amino)hexanoic acid dihydrochloride",2.12 L/kg
same,VSS,"[5]; PO, 10 mg/kg, listed as (S)-2-amino-6-((3-aminopropyl)amino)hexanoic acid",2.1 L/kg
same,AUCtot,"[5]; PO, 10 mg/kg, plasma",10.45 μg*hr/m
same,Cmax,"[5]; mouse, IV, 5 mg/kg, plasma",8360 ng/mL
same,Cmax,"[5]; mouse, PO, 10 mg/kg, plasma",1440 ng/mL
same,clearance,"[5]; mouse, plasma, IV, 5 mg/kg",5.17 mL/min
same,half-life,"[5]; mouse, plasma, IV, 5 mg/kg",2.53 h
same,Tmax,"[5]; mouse, plasma, PO, 10 mg/kg",3.33 h
same,half-life,"[5]; mouse, plasma, PO, 10 mg/kg",3.25 h
same,Vd,"[5]; mouse, plasma, iv, 5 mg/kg, IV, 5 mg/kg, read-out: VSS",0.414 L/kg
same,bioavailability,"[5]; mouse, plasma, oral, 10 mg/kg, PO 10 mg/kg vs IV 5 mg/kg",~100%
